What was measured:
HBB locus [1] = assay: Cas9 genome editing at the HBB locus, quantification of repair outcomes (reads); type: cell-based
Source text: The data is a representation of at least four independent experiments with a minimum of 350 reads per condition.
FIG. 12B is a graph depicting the percentage of modification observed in U2OS cells edited at the HBB locus with D10A Cas9 and 2 gRNAs with or without BRCA2 or Rad51. FF is a negative control.

HBB locus [2] = assay: Repair outcomes at the HBB locus after Cas9 variant cleavage, Sanger sequencing of Topo clones; type: cell-based, human; conditions: U2OS cells
Source text: The different repair outcomes induced in response to DSBs introduced by different Cas9 variants were examined (FIG. 3). […] Several different DNA repair outcomes including, e.g., indel mutations resulting from non-homologous end-joining, alternative NHEJ, HDR homologous recombination (HR) using the closely related HBD gene as an endogenous template, or homology dependent repair using an exogenous donor sequence were characterized.
For some conditions, 50 pmols of single stranded oligonucleotide donor (ss-ODN) was included. Cells were collected 6 days after electroporation and genomic DNA was extracted. PCR amplification of the HBB locus was performed and subcloned into a Topo Blunt Vector. For each condition in each experiment (more the 4 independent samples) 98 colonies were analyses were sequenced with Sanger sequencing and scored for either insertions, deletions, gene conversion or gene corrections.

HBB locus [3] = assay: Deletion length at the HBB locus after Cas9 variant cleavage; type: cell-based, human; conditions: U2OS cells, gRNAs 8 and 15, 6 days after electroporation
Procedure: In this experiment, the deletions occurring in response to different end structures induced by different Cas9 variants were analyzed. […] Cells were collected 6 days after electroporation and genomic DNA was extracted. PCR amplification of the HBB locus was performed and subcloned into a Topo Blunt Vector. For each condition in each experiment (more the 4 independent samples), 98 colonies were analyses were sequenced with Sanger sequencing. Deletions detected by Sanger sequencing were scored for the exact number of nucleotides deleted.

Substance | repair pathway of the double strand breaks generated (HBB locus [1]) | engagement of the 5′ protruding end in HDR (HBB locus [1]; PAM facing in the opposite orientation, presence of a single-stranded oligonucleotide donor template nucleic acid) | efficacy compared to wildtype Cas9 (HBB locus [2]; gRNAs HBB-8 and HBB-15) | predominant repair outcome of the induced DSBs (HBB locus [2]; gRNAs HBB-8 and HBB-15, no exogenous ss-ODN, 6 days after electroporation) | repair using the ss-ODN as a template (HBB locus [2]; gRNAs HBB-8 and HBB-15, with 50 pmols ss-ODN) | size of deletions (HBB locus [3])
D10A Cas9 mutant: Cas9 nickase with D10A mutation; D10A inactivates RuvC, only HNH activity; leaves 5′ protruding ends | predominantly repaired by HR | more prone to be engaged in HDR |  |  |  | 
D10A: Cas9 nickase mutant (RuvC domain catalytic mutant); two gRNAs with PAMs outwards give 5′ protruding arms |  |  | comparable levels of efficacy compared to wildtype Cas9 | predominantly repaired by the gene conversion pathway | most efficient repair | mostly larger in nature
